# Laboratory results taken from patent publication US11345694B2, “Antibacterial compounds” (DISCUVA LTD., priority 2017, dated 2022).
# Like-named read-outs stand apart in the source and are kept apart here.
# Key:
# [1] = system: Acinetobacter baumannii ATCC 17978 (AB); experiment: MIC broth microdilution; assay type: cell-based; settings: for MIC: ATCC17978
# Method in brief: (§1)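 Compounds are diluted two-fold across a final range of 0.39-200 μM, keeping DMSO no higher than 2% final. Bacteria in cation-adjusted Müller-Hinton broth are then incubated at 37° C under ambient atmosphere for 20-24 h. The lowest growth-inhibiting concentration gives the MIC.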
# [2] = system: Serratia marcescens SL1344 (Sm); experiment: MIC broth microdilution; assay type: cell-based
# Method in brief: as §1
# [3] = system: Pseudomonas aeruginosa ATCC 33359 (PA); experiment: MIC broth microdilution; assay type: cell-based; settings: for MIC: ATCC33359
# Method in brief: as §1
# [4] = system: Staphylococcus aureus ATCC 35556 (SA); experiment: MIC broth microdilution; assay type: cell-based; settings: for MIC: ATCC35556
# Method in brief: as §1
# [5] = system: Escherichia coli K12 (EC); experiment: MIC broth microdilution; assay type: cell-based
# Method in brief: as §1
# [6] = system: Salmonella typhimurium XNAA5 (St); experiment: MIC broth microdilution; assay type: cell-based
# Method in brief: as §1
# [7] = system: E. coli NCTC 13441 (UPEC); experiment: MIC broth microdilution; assay type: cell-based, Escherichia coli; settings: for MIC: Escherichia coli, NCTC13441
# Method in brief: as §1
# [8] = system: human hepatocarcinoma cell line ATCC HB-8065 (HepG2); experiment: Human cell viability (CellTiter-Glo); assay type: cell-based; settings: HepG2 cells, 24 h incubation, CellTiter-Glo luminescence, 0.2-100 μM, read-out: IC50 values against the HepG2 cell line
# Method in brief: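 Cytotoxicity was read as CellTiter-Glo luminescence after 24 h compound exposure at 37° C., 5% CO2. Final concentrations spanned 0.2-100 μM in two-fold steps, in 1% FBS MEM with 1% DMSO, on cells plated a day earlier at 20,000/well. IC50 came from 4-parameter logistic regression.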
# [9] = system: K. pneumoniae H154640784 (KP7); experiment: MIC broth microdilution; assay type: cell-based, Klebsiella pneumoniae; settings: for MIC: Klebsiella pneumoniae
# Method in brief: (§2)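 Two-fold dilution series, 0.39-200 μM final, max 2% DMSO; CA-MHB; 37° C, ambient air, 20-24 h; MIC = lowest conc. inhibiting visible growth. CLSI broth microdilution.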
# [10] = system: K. pneumoniae H151440671 (KP10); experiment: MIC broth microdilution; assay type: cell-based, Klebsiella pneumoniae; settings: for MIC: Klebsiella pneumoniae
# Method in brief: as §2
# [11] = system: K. pneumoniae H154020667 (KP6); experiment: MIC broth microdilution; assay type: cell-based, Klebsiella pneumoniae; settings: for MIC: Klebsiella pneumoniae
# Method in brief: as §2
# [12] = system: K. pneumoniae H154680676 (KP5); experiment: MIC broth microdilution; assay type: cell-based, Klebsiella pneumoniae; settings: for MIC: Klebsiella pneumoniae
# Method in brief: as §2
# [13] = system: K. pneumoniae NCTC 13438 (KP1); experiment: MIC broth microdilution; assay type: cell-based, Klebsiella pneumoniae; settings: for MIC: Klebsiella pneumoniae, NCTC13438
# Method in brief: as §2
# [14] = system: K. pneumoniae ATCC 700603 (KP3); experiment: MIC broth microdilution; assay type: cell-based, Klebsiella pneumoniae; settings: for MIC: Klebsiella pneumoniae, ATCC700603
# Method in brief: as §2
# [15] = system: K. pneumoniae H154600588 (KP8); experiment: MIC broth microdilution; assay type: cell-based, Klebsiella pneumoniae; settings: for MIC: Klebsiella pneumoniae
# Method in brief: as §2
# [16] = system: K. pneumoniae H154300688 (KP9); experiment: MIC broth microdilution; assay type: cell-based, Klebsiella pneumoniae; settings: for MIC: Klebsiella pneumoniae
# Method in brief: as §2
# [17] = system: Klebsiella pneumoniae ATCC 10031 (KP2); experiment: MIC broth microdilution; assay type: cell-based; settings: for MIC: ATCC10031
# Method in brief: as §2
# [18] = system: Klebsiella pneumoniae ATCC 51504 (KP4); experiment: MIC broth microdilution; assay type: cell-based; settings: ATCC51504
# Method in brief: as §1
Structure (SMILES),IC50 ([8]; Homo sapiens) [µM],MIC [9] [µM],MIC [10] [µM],MIC [11] [µM],MIC [12] [µM],MIC [13] [µM],MIC [14] [µM],MIC [15] [µM],MIC [16] [µM],MIC [17] [µM],MIC [1] [µM],MIC [3] [µM],MIC [4] [µM],MIC [5] [µM],MIC [7] [µM],MIC [18] [µM],further results
O=C(O)c1cn(C2CC2)c2cc(N3CCNCC3)c(F)cc2c1=O [CIP],–,–,–,–,–,–,–,–,–,–,–,–,–,–,–,–,MIC AB [1]: A (an MIC (μM) of less or equal to 1 is assigned the letter A); MIC Sm [2]: A (an MIC (μM) of less or equal to 1 is assigned the letter A); MIC PA [3]: B (a MIC of from 1 to 10 is assigned the letter B); MIC SA [4]: B (a MIC of from 1 to 10 is assigned the letter B); MIC EC [5]: A (an MIC (μM) of less or equal to 1 is assigned the letter A); MIC St [6]: A (an MIC (μM) of less or equal to 1 is assigned the letter A); MIC UPEC [7]: D (a MIC of over 100 is assigned the letter D)
"COc1ccc(-c2nc(N)[nH]c2-c2ccnc(C)c2)cc1Cl [Example 12, 4-(3-Chloro-4-methoxyphenyl)-5-(2-methylpyridin-4-yl)-1H-imidazol-2-amine]",> 100,10 to 100,1 to 10,1 to 10,1 to 10,10 to 100,10 to 100,10 to 100,1 to 10,≤ 1,> 100,> 100,> 100,1 to 10,1 to 10,–,–
"Nc1cc(-c2[nH]c(N)nc2-c2ccc3c(c2)OCCO3)ccn1 [Example 24, 4-(2-Amino-4-(2,3-dihydrobenzo[b][1,4]dioxin-6-yl)-1H-imidazol-5-yl)pyridin-2-amine]",> 100,10 to 100,1 to 10,1 to 10,1 to 10,10 to 100,10 to 100,10 to 100,10 to 100,≤ 1,> 100,> 100,> 100,1 to 10,1 to 10,–,–
"Cc1cc(-c2[nH]c(N)nc2-c2ccc3c(c2)OCO3)ccn1 [Example 26, 4-(Benzo[d][1,3]dioxol-5-yl)-5-(2-methylpyridin-4-yl)-1H-imidazol-2-amine]",> 100,10 to 100,1 to 10,1 to 10,1 to 10,10 to 100,10 to 100,10 to 100,1 to 10,≤ 1,> 100,> 100,> 100,≤ 1,1 to 10,–,–
"COc1ncc(-c2nc(N)[nH]c2-c2ccnc(C)c2)cc1F [Example 29, 4-(5-Fluoro-6-methoxypyridin-3-yl)-5-(2-methylpyridin-4-yl)-1H-imidazol-2-amine]",> 100,10 to 100,1 to 10,1 to 10,1 to 10,10 to 100,10 to 100,10 to 100,1 to 10,≤ 1,> 100,> 100,> 100,≤ 1,≤ 1,–,–
"Cc1cc(-c2[nH]c(N)nc2-c2ccc3c(c2)OCCO3)ccn1 [Example 32, 4-(2,3-Dihydrobenzo[b][1,4]dioxin-6-yl)-5-(2-methylpyridin-4-yl)-1H-imidazol-2-amine]",–,–,–,–,–,–,–,–,–,–,–,–,–,–,–,1 to 10,IC50 [8]: > 100 µM; MIC KP7 [9]: B (a MIC of from 1 to 10 is assigned the letter B); MIC KP10 [10]: B (a MIC of from 1 to 10 is assigned the letter B); MIC KP6 [11]: B (a MIC of from 1 to 10 is assigned the letter B); MIC KP5 [12]: B (a MIC of from 1 to 10 is assigned the letter B); MIC KP1 [13]: B (a MIC of from 1 to 10 is assigned the letter B); MIC KP3 [14]: B (a MIC of from 1 to 10 is assigned the letter B); MIC KP8 [15]: B (a MIC of from 1 to 10 is assigned the letter B); MIC KP9 [16]: B (a MIC of from 1 to 10 is assigned the letter B); MIC KP2 [17]: A (an MIC (μM) of less or equal to 1 is assigned the letter A); MIC AB [1]: D (a MIC of over 100 is assigned the letter D); MIC PA [3]: D (a MIC of over 100 is assigned the letter D); MIC SA [4]: D (a MIC of over 100 is assigned the letter D); MIC EC [5]: A (an MIC (μM) of less or equal to 1 is assigned the letter A); MIC UPEC [7]: A (an MIC (μM) of less or equal to 1 is assigned the letter A)
"Nc1nc(-c2ccc3c(c2)NCCO3)c(-c2ccnc(Cl)c2)[nH]1 [Example 45, 5-(2-Chloropyridin-4-yl)-4-(3,4-dihydro-2H-benzo[b][1,4]oxazin-6-yl)-1H-imidazol-2-amine]",> 100,1 to 10,1 to 10,1 to 10,1 to 10,1 to 10,1 to 10,10 to 100,1 to 10,≤ 1,> 100,> 100,> 100,≤ 1,≤ 1,1 to 10,–
"Cc1cc(-c2[nH]c(N)nc2-c2cc(F)c3c(c2)NCCO3)ccn1 [Example 49, 4-(8-Fluoro-3,4-dihydro-2H-benzo[b][1,4]oxazin-6-yl)-5-(2-methylpyridin-4-yl)-1H-imidazol-2-amine]",> 100,1 to 10,1 to 10,≤ 1,≤ 1,1 to 10,1 to 10,1 to 10,1 to 10,≤ 1,> 100,> 100,> 100,≤ 1,1 to 10,≤ 1,–
"Cc1cc(-c2[nH]c(N)nc2-c2cc3c(cc2F)OCCN3)ccn1 [Example 52, 4-(7-Fluoro-3,4-dihydro-2H-benzo[b][1,4]oxazin-6-yl)-5-(2-methylpyridin-4-yl)-1H-imidazol-2-amine]",> 100,1 to 10,≤ 1,≤ 1,≤ 1,1 to 10,1 to 10,1 to 10,1 to 10,≤ 1,> 100,> 100,> 100,≤ 1,≤ 1,≤ 1,–
"Cc1cc(-c2[nH]c(N)nc2-c2ccc3c(c2)N(S(C)(=O)=O)CCO3)ccn1 [Example 55, 5-(2-Methylpyridin-4-yl)-4-(4-(methylsulfonyl)-3,4-dihydro-2H-benzo[b][1,4]oxazin-6-yl)-1H-imidazol-2-amine]",> 100,1 to 10,1 to 10,1 to 10,1 to 10,10 to 100,1 to 10,1 to 10,1 to 10,≤ 1,> 100,> 100,> 100,1 to 10,1 to 10,1 to 10,–
"Cc1cc(-c2[nH]c(C)nc2-c2ccc3c(c2)OCCO3)ccn1 [Example 84, 4-(4-(2,3-Dihydrobenzo[b][1,4]dioxin-6-yl)-2-methyl-1H-imidazol-5-yl)-2-methylpyridine]",> 100,10 to 100,1 to 10,1 to 10,1 to 10,10 to 100,10 to 100,10 to 100,10 to 100,≤ 1,> 100,> 100,> 100,1 to 10,1 to 10,–,–
